{"source": "paper PMC11574045", "about": "“A cofactor-induced repressive type of transcription factor condensation can be induced by synthetic peptides to suppress tumorigenesis” (The EMBO Journal, 2024)", "key": {"TEAD4 [1]": {"target": "T1, TEAD4 (Homo sapiens, UniProt Q15561)", "T1 construct": "His; made in house; host or cells: Escherichia coli BL21(DE3)", "test": "Dynamic light scattering (DLS) of TEAD4 oligomerization", "type": "biochemical", "conditions": "after 10–20 min incubation with glup (10 μg/ml); TEAD4:glup molar ratio 10:1, 4 °C; DLS at 25 °C", "method": "In the case of glup, the mixtures were incubated at 4 °C for various periods of time as indicated in related figures. And then the mixtures were subjected to dynamic light scattering analysis at 25 °C. Scattered light was measured at a 90° angle at a wavelength of 658 nm."}, "TEAD4 [2]": {"target": "T1, TEAD4", "test": "In vitro DSS-cross-linking assay of TEAD4 oligomerization", "type": "biochemical", "conditions": "5 µM protein, 30 min 30 °C, DSS 3 mM, SDS-PAGE", "method": "The deployed cross-linking reaction system contained 20 mM HEPES pH 7.5, 250 mM NaCl and 5 µM tested proteins with a total volume of 20 µl. This system was allowed to incubate for 30 min at 30 °C, and then combined with disuccinimidyl suberate (DSS) at a final concentration of 3 mM, and the mixtures were further incubated at 4 °C for 20 min. The cross-linking reaction was stopped by adding 1 M Tris HCl (pH 8.5) to the incubated mixture at 4 °C, and allowing the mixture to sit for 10 min, and then boiling it in 1×SDS loading buffer to provide samples for SDS-PAGE analysis."}, "AZ-521 cells": {"tested_on": "AZ-521 cells", "type": "cell-based, human", "conditions": "48 h", "method": "(§1) For cell viability assays, cells were seeded into 96-well plates overnight to attach them to the plates, and then treated with GLUP for 48 h. Cells incubated for indicated periods of time were analyzed using an ATP-based CellTiter-Lumi^TM Plus kit (Beyotime) according to the manufacturer’s instructions. The intracellular ATP contents were measured using a BioTek Synergy^TM NEO multi-detector microplate reader (Thermo). Cell viability was calculated using the equation cell viability (%) = [[value (test) − value (blank)] × [value (control) − value (blank)]] −1 × 100."}, "BGC-823 cells": {"tested_on": "BGC-823 cells", "type": "cell-based, human", "conditions": "48 h", "method": "as §1"}, "GES-1 cells": {"tested_on": "GES-1 cells", "type": "cell-based, human", "conditions": "48 h", "method": "as §1"}, "HGC-27 cells [3]": {"tested_on": "HGC-27 cells", "type": "cell-based, human", "method": "as §1"}, "MGC-803 cells": {"tested_on": "MGC-803 cells", "type": "cell-based, human", "conditions": "48 h", "method": "as §1"}, "MKN-28 cells": {"tested_on": "MKN-28 cells", "type": "cell-based, human", "conditions": "48 h", "method": "as §1"}, "MKN-45 cells": {"tested_on": "MKN-45 cells", "type": "cell-based, human", "conditions": "48 h", "method": "as §1"}, "SH-10-TC cells": {"tested_on": "SH-10-TC cells", "type": "cell-based, human", "conditions": "48 h", "method": "as §1"}, "SNU-216 cells": {"tested_on": "SNU-216 cells", "type": "cell-based, human", "conditions": "48 h", "method": "as §1"}, "HGC-27 cells [4]": {"tested_on": "HGC-27 cells", "test": "Colony formation", "type": "cell-based, human", "conditions": "colony formation: GLUP 2 μg/ml (1 μM) every 2 days for 2 weeks", "method": "(A) Cell viability levels of HGC-27 cells treated with indicated concentrations (0, 5, 10, 20, 40 μg/ml) of GLUP for 48 h (three biological replicates, n = 3). Data shown as means ± SD represent the representative results from two independent experiments. (B) Colony formation of HGC-27 cells treated with GLUP every 2 days for a 2-week duration (three biological replicates, n = 3). GLUP, 2 μg/ml (1 μM). (C) Cell viability levels of the indicated cells (from 10 different lines) treated with GLUP. […] IC50 values for the treatments of these cells with GLUP (lower). […] The box plots showing the minima, maxima, center, bounds of box and whiskers and percentiles (upper quartile, median and lower quartile). Data shown as means ± SD represent the representative results from two independent experiments. Significance was tested using the unpaired t test, ***p < 0.001. (D) Cell viability of TEAD4-overexpressing AGS cells treated with GLUP for 48 h (three biological replicates, n = 3). Data shown as means ± SD represent the representative results from two independent experiments. (E) Cell viability levels of four lines of patient-derived cells (PDCs) treated with GLUP. […] The quantification graph represents the data collected from 14 cells (n = 14). […] Tumor areas were measured (right, n = 8/group) and indicated in red circles. […]"}, "[5]": {"test": "Toxicity analysis (blood testing, blood biochemistry, pathology)", "type": "in vivo, mouse", "conditions": "BALB/c mice, GLUP 1 or 10 mg/kg i.p. every 2 days, 14 days", "method": "Healthy BALB/c mice (~8 weeks, n = 5) were injected intraperitoneally with GLUP (1, 10 mg/kg, respectively, every 2 days), and mice of the control group were injected with saline (10 ml/kg, n = 5). The mice were continuously observed for 14 days after the administration and then sacrificed for routine blood testing (of white blood cells, red blood cells, platelets, lymphocytes, monocytes, and neutrophils), examination of the blood biochemistry (hemoglobin, albumin, glucose, creatinine, urea, AST, and ALT) and pathology examination."}}, "note": "Ends that are not written are not given here.", "data": [{"substance": "RRVCVHFHFSLSLR-NH2 (C-terminus assumed) [glup]", "values": [{"measurement": "TEAD4 oligomerization by DLS", "setting": "TEAD4 [1]", "value": "formed dimers or oligomers of high molecular weight"}, {"measurement": "TEAD4 oligomerization in DSS cross-linking", "setting": "TEAD4 [2]", "value": "induced TEAD4 oligomerization in a concentration-dependent manner"}, {"measurement": "TEAD4 oligomerization in DSS cross-linking", "setting": "TEAD4 [2]; listed as GLUP", "value": "strongly induced TEAD4 oligomerization"}, {"measurement": "IC50", "setting": "AZ-521 cells", "value": 8.1, "unit": "µg/mL"}, {"measurement": "IC50", "setting": "BGC-823 cells", "value": 26.1, "unit": "µg/mL"}, {"measurement": "IC50", "setting": "GES-1 cells", "value": 13.1, "unit": "µg/mL"}, {"measurement": "Cell death", "setting": "HGC-27 cells [3]; HGC-27, 0.1 µg/ml GLUP, 48 h (peer review file, Figure R22C)", "value": "~60", "unit": "%"}, {"measurement": "Suppression of cell growth with or without YAP (5SA) overexpression", "setting": "HGC-27 cells [3]; HGC-27, 0.1/1 µg/ml GLUP (peer review file, Figure R23)", "value": "regardless of YAP (5SA) expression"}, {"measurement": "IC50", "setting": "MGC-803 cells", "value": 2.5, "unit": "µg/mL"}, {"measurement": "IC50", "setting": "MKN-28 cells", "value": 6.7, "unit": "µg/mL"}, {"measurement": "IC50", "setting": "MKN-45 cells", "value": 7.3, "unit": "µg/mL"}, {"measurement": "IC50", "setting": "SH-10-TC cells", "value": 26.3, "unit": "µg/mL"}, {"measurement": "IC50", "setting": "SNU-216 cells", "value": 23.4, "unit": "µg/mL"}, {"measurement": "Viability and colony formation", "setting": "HGC-27 cells [4]", "value": "obvious reduction in both the viability and colony formation"}, {"measurement": "Blood findings upon GLUP treatment", "setting": "[5]", "value": "a range of blood biochemical abnormalities e.g., in numbers of platelets and neutrophils"}]}]}
